Assay results published in article PMC4767141, “Discovery of Potent, Orally Bioavailable, Small-Molecule Inhibitors of WNT Signaling from a Cell-Based Pathway Screen” (Journal of Medicinal Chemistry, 2015).

Key:
β1 (h) = target: T1, β1 (h) (Homo sapiens, UniProt P08588); assay: CEREP binding panel; conditions: agonist radioligand, read-out: % Inhibition of Control Specific Binding
T1 construct: purchased Millipore KinaseProfiler (kinases); Cerep (receptors and ion channels)

D2S (h) = target: T2, D2S (h) (Homo sapiens, UniProt P14416); assay: CEREP binding panel; conditions: antagonist radioligand, read-out: % Inhibition of Control Specific Binding
T2 construct: purchased Millipore KinaseProfiler (kinases); Cerep (receptors and ion channels)

H1 (h) = target: T3, H1 (h) (Homo sapiens, UniProt P35367); assay: CEREP binding panel; conditions: antagonist radioligand, read-out: % Inhibition of Control Specific Binding
T3 construct: purchased Millipore KinaseProfiler (kinases); Cerep (receptors and ion channels)

MC4 (h) = target: T4, MC4 (h) (Homo sapiens, UniProt P32245); assay: CEREP binding panel; conditions: agonist radioligand, read-out: % Inhibition of Control Specific Binding
T4 construct: purchased Millipore KinaseProfiler (kinases); Cerep (receptors and ion channels)

NTS1 (NT1) (h) = target: T5, NTS1 (NT1) (h) (Homo sapiens, UniProt P30989); assay: CEREP binding panel; conditions: agonist radioligand, read-out: % Inhibition of Control Specific Binding
T5 construct: purchased Millipore KinaseProfiler (kinases); Cerep (receptors and ion channels)

μ (MOP) (h) = target: T6, μ (MOP) (h) (Homo sapiens, UniProt P35372); assay: CEREP binding panel; conditions: 10 μM, agonist radioligand
T6 construct: purchased Millipore KinaseProfiler (kinases); Cerep (receptors and ion channels)
T6 sequence (P35372 whole entry): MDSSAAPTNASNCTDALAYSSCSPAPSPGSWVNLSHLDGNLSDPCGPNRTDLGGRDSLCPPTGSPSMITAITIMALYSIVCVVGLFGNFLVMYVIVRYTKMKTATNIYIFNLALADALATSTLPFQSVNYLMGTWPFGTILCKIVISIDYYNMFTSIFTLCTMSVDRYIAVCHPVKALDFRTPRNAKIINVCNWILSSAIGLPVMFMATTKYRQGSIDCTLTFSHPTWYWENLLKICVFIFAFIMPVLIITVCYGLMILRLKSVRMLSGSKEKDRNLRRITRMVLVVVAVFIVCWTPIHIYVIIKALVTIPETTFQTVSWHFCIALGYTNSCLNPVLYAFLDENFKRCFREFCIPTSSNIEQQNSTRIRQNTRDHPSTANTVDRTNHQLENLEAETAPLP

5-HT1B = target: T7, 5-HT1B (Rattus norvegicus, UniProt P28564); assay: CEREP binding panel; conditions: antagonist radioligand, read-out: % Inhibition of Control Specific Binding
T7 construct: purchased Millipore KinaseProfiler (kinases); Cerep (receptors and ion channels)

5-HT6 (h) = target: T8, 5-HT6 (h) (Homo sapiens, UniProt P50406); assay: CEREP binding panel; conditions: agonist radioligand, read-out: % Inhibition of Control Specific Binding
T8 construct: purchased Millipore KinaseProfiler (kinases); Cerep (receptors and ion channels)
T8 sequence (P50406 whole entry): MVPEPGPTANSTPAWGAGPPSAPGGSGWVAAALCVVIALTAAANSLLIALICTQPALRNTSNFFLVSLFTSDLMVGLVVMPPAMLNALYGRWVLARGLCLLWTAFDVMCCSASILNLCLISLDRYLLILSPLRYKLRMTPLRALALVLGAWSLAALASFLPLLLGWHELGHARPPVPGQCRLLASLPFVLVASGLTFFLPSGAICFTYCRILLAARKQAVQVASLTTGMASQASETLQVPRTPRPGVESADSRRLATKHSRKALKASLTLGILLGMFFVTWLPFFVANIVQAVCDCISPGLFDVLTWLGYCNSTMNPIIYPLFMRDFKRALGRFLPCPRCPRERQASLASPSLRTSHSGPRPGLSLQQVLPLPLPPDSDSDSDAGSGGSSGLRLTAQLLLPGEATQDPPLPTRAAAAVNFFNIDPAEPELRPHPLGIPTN

sst (non-selective) = assay: CEREP binding panel; conditions: 10 μM, agonist radioligand
BRK = target: T9, BRK (Homo sapiens, UniProt Q13882); assay: Millipore kinase panel; type: biochemical; conditions: read-out: % Control
T9 construct: purchased Millipore KinaseProfiler (kinases); Cerep (receptors and ion channels)
T9 sequence (Q13882 whole entry): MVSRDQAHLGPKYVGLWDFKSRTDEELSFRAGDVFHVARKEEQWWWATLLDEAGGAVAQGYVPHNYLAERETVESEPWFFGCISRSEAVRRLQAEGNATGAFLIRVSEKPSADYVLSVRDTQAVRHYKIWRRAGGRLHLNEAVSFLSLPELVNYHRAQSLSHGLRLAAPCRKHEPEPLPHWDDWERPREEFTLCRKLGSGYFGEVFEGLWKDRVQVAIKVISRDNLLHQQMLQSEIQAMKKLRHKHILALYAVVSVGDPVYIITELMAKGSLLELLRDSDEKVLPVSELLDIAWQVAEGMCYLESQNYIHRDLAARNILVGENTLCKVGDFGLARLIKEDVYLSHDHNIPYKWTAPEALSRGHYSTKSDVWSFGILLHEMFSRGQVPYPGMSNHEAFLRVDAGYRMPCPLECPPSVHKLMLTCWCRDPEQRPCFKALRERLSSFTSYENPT

CAMKI = target: T10, CAMKI (Homo sapiens, UniProt Q14012); assay: Millipore kinase panel; type: biochemical; conditions: read-out: % Control
T10 construct: purchased Millipore KinaseProfiler (kinases); Cerep (receptors and ion channels)

CAMKIV = target: T11, CAMKIV (Homo sapiens, UniProt Q16566); assay: Millipore kinase panel; type: biochemical; conditions: read-out: % Control
T11 construct: purchased Millipore KinaseProfiler (kinases); Cerep (receptors and ion channels)

CDK5/P25 = target: T12, CDK5/P25 (Homo sapiens, UniProt Q00535); assay: Millipore kinase panel; type: biochemical; conditions: read-out: % Control
T12 construct: purchased Millipore KinaseProfiler (kinases); Cerep (receptors and ion channels)
T12 sequence (Q00535 whole entry): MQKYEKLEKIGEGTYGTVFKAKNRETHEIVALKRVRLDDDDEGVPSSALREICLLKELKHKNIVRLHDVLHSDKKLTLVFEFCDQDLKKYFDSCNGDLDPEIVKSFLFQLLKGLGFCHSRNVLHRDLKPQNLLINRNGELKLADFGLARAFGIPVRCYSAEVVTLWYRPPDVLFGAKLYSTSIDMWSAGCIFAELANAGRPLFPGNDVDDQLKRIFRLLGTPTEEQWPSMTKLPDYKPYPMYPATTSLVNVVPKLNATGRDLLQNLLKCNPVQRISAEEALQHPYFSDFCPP
T12 sequence (Q15078 99-307 partner limits assumed): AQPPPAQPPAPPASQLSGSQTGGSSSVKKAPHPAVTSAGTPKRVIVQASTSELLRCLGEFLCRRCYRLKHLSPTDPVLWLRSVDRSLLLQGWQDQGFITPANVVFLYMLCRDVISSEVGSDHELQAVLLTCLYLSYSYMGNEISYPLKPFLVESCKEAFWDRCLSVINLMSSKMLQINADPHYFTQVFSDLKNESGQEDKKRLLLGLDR

CDK7/CYCLINH/MAT1 = target: T13, CDK7/CYCLINH/MAT1 (Homo sapiens, UniProt P50613); assay: Millipore kinase panel; type: biochemical; conditions: read-out: % Control
T13 construct: purchased Millipore KinaseProfiler (kinases); Cerep (receptors and ion channels)

CK2 = target: T14, CK2 (Homo sapiens, UniProt P68400); assay: Millipore kinase panel; type: biochemical; conditions: read-out: % Control
T14 construct: purchased Millipore KinaseProfiler (kinases); Cerep (receptors and ion channels)

CSK = target: T15, CSK (Homo sapiens, UniProt P41240); assay: Millipore kinase panel; type: biochemical; conditions: read-out: % Control
T15 construct: purchased Millipore KinaseProfiler (kinases); Cerep (receptors and ion channels)

DMPK = target: T16, DMPK (Homo sapiens, UniProt Q09013); assay: Millipore kinase panel; type: biochemical; conditions: read-out: % Control
T16 construct: purchased Millipore KinaseProfiler (kinases); Cerep (receptors and ion channels)

EPHA2 = target: T17, EPHA2 (Homo sapiens, UniProt P29317); assay: Millipore kinase panel; type: biochemical; conditions: read-out: % Control
T17 construct: purchased Millipore KinaseProfiler (kinases); Cerep (receptors and ion channels)

HIPK2 = target: T18, HIPK2 (Homo sapiens, UniProt Q9H2X6); assay: Millipore kinase panel; type: biochemical; conditions: read-out: % Control
T18 construct: purchased Millipore KinaseProfiler (kinases); Cerep (receptors and ion channels)
T18 sequence (Q9H2X6 whole entry): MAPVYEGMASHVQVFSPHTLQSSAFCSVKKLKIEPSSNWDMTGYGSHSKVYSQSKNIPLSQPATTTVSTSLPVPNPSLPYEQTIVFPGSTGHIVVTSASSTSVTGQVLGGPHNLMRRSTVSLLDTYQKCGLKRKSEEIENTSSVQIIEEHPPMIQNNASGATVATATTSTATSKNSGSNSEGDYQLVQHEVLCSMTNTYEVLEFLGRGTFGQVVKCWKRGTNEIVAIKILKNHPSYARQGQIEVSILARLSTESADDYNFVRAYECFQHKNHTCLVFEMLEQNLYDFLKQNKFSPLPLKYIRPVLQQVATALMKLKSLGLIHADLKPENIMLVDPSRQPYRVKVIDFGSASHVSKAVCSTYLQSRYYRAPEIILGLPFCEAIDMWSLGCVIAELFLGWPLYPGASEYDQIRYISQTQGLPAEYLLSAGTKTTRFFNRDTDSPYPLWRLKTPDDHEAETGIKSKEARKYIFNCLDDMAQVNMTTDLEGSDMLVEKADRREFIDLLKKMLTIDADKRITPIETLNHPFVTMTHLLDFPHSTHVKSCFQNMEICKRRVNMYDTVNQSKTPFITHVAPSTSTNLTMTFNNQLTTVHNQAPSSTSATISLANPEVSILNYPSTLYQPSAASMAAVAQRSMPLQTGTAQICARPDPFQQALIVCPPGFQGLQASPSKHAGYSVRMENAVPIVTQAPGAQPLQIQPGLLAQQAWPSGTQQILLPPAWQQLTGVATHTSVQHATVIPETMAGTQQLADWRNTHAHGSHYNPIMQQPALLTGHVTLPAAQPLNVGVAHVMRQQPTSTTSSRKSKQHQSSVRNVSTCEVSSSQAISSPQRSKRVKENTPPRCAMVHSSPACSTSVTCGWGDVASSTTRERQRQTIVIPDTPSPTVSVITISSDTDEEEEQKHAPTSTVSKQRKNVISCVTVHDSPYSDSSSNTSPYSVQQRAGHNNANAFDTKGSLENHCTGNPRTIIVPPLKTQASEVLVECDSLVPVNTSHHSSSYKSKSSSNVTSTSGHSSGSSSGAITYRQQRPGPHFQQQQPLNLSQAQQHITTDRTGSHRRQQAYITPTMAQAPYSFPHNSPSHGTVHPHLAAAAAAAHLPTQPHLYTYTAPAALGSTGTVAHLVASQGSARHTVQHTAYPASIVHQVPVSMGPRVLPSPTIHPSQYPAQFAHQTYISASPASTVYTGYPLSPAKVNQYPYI

HIPK3 = target: T19, HIPK3 (Homo sapiens, UniProt Q9H422); assay: Millipore kinase panel; type: biochemical; conditions: read-out: % Control
T19 construct: purchased Millipore KinaseProfiler (kinases); Cerep (receptors and ion channels)

KDR = target: T20, KDR (Homo sapiens, UniProt P35968); assay: Millipore kinase panel; type: biochemical; conditions: read-out: % Control
T20 construct: purchased Millipore KinaseProfiler (kinases); Cerep (receptors and ion channels)

LKB1 = target: T21, LKB1 (Homo sapiens, UniProt Q15831); assay: Millipore kinase panel; type: biochemical; conditions: read-out: % Control
T21 construct: purchased Millipore KinaseProfiler (kinases); Cerep (receptors and ion channels)

MARK1 = target: T22, MARK1 (Homo sapiens, UniProt Q9P0L2); assay: Millipore kinase panel; type: biochemical; conditions: read-out: % Control
T22 construct: purchased Millipore KinaseProfiler (kinases); Cerep (receptors and ion channels)

MEK1 = target: T23, MEK1 (Homo sapiens, UniProt Q02750); assay: Millipore kinase panel; type: biochemical; conditions: read-out: % Control
T23 construct: purchased Millipore KinaseProfiler (kinases); Cerep (receptors and ion channels)

MINK = target: T24, MINK (Homo sapiens, UniProt Q8N4C8); assay: Millipore kinase panel; type: biochemical; conditions: read-out: % Control
T24 construct: purchased Millipore KinaseProfiler (kinases); Cerep (receptors and ion channels)
T24 sequence (Q8N4C8 whole entry): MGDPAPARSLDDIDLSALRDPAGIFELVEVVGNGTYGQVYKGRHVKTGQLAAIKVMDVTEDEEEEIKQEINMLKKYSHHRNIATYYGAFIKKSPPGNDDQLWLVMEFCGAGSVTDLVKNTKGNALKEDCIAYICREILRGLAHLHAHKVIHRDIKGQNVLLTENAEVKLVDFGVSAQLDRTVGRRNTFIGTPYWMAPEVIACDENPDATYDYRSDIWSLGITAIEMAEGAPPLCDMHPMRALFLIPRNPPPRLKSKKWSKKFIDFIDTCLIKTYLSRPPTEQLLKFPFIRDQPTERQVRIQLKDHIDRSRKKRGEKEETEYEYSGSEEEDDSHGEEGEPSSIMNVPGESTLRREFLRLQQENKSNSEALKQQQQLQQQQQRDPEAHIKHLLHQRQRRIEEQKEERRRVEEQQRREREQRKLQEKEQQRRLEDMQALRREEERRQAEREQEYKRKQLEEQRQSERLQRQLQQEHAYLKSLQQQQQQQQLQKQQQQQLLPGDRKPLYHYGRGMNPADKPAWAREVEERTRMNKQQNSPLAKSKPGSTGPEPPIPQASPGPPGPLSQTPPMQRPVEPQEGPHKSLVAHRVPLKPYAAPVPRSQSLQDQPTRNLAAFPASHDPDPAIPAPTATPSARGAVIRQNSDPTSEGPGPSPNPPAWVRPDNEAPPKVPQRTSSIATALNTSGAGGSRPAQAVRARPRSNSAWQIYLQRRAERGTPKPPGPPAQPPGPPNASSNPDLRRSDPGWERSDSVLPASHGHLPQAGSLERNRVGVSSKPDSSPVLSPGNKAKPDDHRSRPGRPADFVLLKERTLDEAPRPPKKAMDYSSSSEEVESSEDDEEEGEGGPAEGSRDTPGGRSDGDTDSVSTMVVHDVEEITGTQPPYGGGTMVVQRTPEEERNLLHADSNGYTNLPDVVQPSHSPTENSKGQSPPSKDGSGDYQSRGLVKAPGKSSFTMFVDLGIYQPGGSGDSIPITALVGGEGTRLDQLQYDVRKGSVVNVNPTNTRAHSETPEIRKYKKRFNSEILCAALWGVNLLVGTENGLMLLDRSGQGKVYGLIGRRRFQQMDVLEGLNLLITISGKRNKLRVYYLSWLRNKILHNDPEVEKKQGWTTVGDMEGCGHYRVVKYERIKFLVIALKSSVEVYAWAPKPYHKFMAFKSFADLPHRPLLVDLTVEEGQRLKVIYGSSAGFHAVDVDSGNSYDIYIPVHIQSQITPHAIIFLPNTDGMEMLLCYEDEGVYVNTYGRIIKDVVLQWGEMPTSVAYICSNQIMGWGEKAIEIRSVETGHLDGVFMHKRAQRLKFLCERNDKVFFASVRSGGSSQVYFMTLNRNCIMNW

MST2 = target: T25, MST2 (Homo sapiens, UniProt Q13188); assay: Millipore kinase panel; type: biochemical; conditions: read-out: % Control
T25 construct: purchased Millipore KinaseProfiler (kinases); Cerep (receptors and ion channels)

NEK6 = target: T26, NEK6 (Homo sapiens, UniProt Q9HC98); assay: Millipore kinase panel; type: biochemical; conditions: read-out: % Control
T26 construct: purchased Millipore KinaseProfiler (kinases); Cerep (receptors and ion channels)

NEK7 = target: T27, NEK7 (Homo sapiens, UniProt Q8TDX7); assay: Millipore kinase panel; type: biochemical; conditions: read-out: % Control
T27 construct: purchased Millipore KinaseProfiler (kinases); Cerep (receptors and ion channels)

PAR-1BALPHA = target: T28, PAR-1BALPHA (Homo sapiens, UniProt Q7KZI7); assay: Millipore kinase panel; type: biochemical; conditions: read-out: % Control
T28 construct: purchased Millipore KinaseProfiler (kinases); Cerep (receptors and ion channels)

PKG1ALPHA = target: T29, PKG1ALPHA (Homo sapiens, UniProt Q13976); assay: Millipore kinase panel; type: biochemical; conditions: read-out: % Control
T29 construct: purchased Millipore KinaseProfiler (kinases); Cerep (receptors and ion channels)

PYK2 = target: T30, PYK2 (Homo sapiens, UniProt Q14289); assay: Millipore kinase panel; type: biochemical; conditions: read-out: % Control
T30 construct: purchased Millipore KinaseProfiler (kinases); Cerep (receptors and ion channels)

CRAF = target: T31, CRAF (Homo sapiens, UniProt P04049); assay: Millipore kinase panel; type: biochemical; conditions: read-out: % Control
T31 construct: purchased Millipore KinaseProfiler (kinases); Cerep (receptors and ion channels)
T31 sequence (P04049 whole entry): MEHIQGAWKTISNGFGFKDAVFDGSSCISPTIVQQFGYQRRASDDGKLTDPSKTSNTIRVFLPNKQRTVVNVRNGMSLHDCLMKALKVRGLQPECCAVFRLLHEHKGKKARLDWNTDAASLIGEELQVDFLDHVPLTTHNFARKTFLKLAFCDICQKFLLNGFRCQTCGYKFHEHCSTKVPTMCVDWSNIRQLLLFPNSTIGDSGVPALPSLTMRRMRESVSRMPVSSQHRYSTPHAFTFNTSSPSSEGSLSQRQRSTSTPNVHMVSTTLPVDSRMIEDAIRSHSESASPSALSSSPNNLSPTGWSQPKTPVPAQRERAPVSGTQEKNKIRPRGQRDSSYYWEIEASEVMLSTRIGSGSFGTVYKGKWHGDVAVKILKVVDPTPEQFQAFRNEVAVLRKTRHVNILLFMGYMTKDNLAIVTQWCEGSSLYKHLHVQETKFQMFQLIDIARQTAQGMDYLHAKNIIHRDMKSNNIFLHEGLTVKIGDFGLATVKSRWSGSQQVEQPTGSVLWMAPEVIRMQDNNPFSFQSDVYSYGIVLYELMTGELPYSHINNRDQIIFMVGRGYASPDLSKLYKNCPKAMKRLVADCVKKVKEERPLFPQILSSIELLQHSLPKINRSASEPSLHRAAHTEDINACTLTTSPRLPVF

SGK = target: T32, SGK (Homo sapiens, UniProt O00141); assay: Millipore kinase panel; type: biochemical; conditions: read-out: % Control
T32 construct: purchased Millipore KinaseProfiler (kinases); Cerep (receptors and ion channels)

SRC = target: T33, SRC (Homo sapiens, UniProt P12931); assay: Millipore kinase panel; type: biochemical; conditions: read-out: % Control
T33 construct: purchased Millipore KinaseProfiler (kinases); Cerep (receptors and ion channels)

WNK2 = target: T34, WNK2 (Homo sapiens, UniProt Q9Y3S1); assay: Millipore kinase panel; type: biochemical; conditions: read-out: % Control
T34 construct: purchased Millipore KinaseProfiler (kinases); Cerep (receptors and ion channels)

CAMKIIBETA = target: T35, CAMKIIBETA (Homo sapiens, UniProt Q13554); assay: Millipore kinase panel; type: biochemical; conditions: read-out: % Control
T35 construct: purchased Millipore KinaseProfiler (kinases); Cerep (receptors and ion channels)

VRK2 = target: T36, VRK2 (Homo sapiens, UniProt Q86Y07); assay: Millipore kinase panel; type: biochemical; conditions: read-out: % Control
T36 construct: purchased Millipore KinaseProfiler (kinases); Cerep (receptors and ion channels)

CLK2 = target: T37, CLK2 (Homo sapiens, UniProt P49760); assay: Millipore kinase panel; type: biochemical; conditions: read-out: % Control
T37 construct: purchased Millipore KinaseProfiler (kinases); Cerep (receptors and ion channels)

TXK = target: T38, TXK (Homo sapiens, UniProt P42681); assay: Millipore kinase panel; type: biochemical; conditions: read-out: % Control
T38 construct: purchased Millipore KinaseProfiler (kinases); Cerep (receptors and ion channels)

PLK1 = target: T39, PLK1 (Homo sapiens, UniProt P53350); assay: Millipore kinase panel; type: biochemical; conditions: read-out: % Control
T39 construct: purchased Millipore KinaseProfiler (kinases); Cerep (receptors and ion channels)

TEC ACTIVATED = target: T40, TEC ACTIVATED (Homo sapiens, UniProt P42680); assay: Millipore kinase panel; type: biochemical; conditions: read-out: % Control
T40 construct: purchased Millipore KinaseProfiler (kinases); Cerep (receptors and ion channels)

IR, ACTIVATED = target: T41, IR, ACTIVATED (Homo sapiens, UniProt P06213); assay: Millipore kinase panel; type: biochemical; conditions: read-out: % Control
T41 construct: purchased Millipore KinaseProfiler (kinases); Cerep (receptors and ion channels)

PRKAA1 = target: T42, PRKAA1 (Homo sapiens, UniProt Q13131); assay: Millipore kinase panel; type: biochemical; conditions: read-out: % Control
T42 construct: purchased Millipore KinaseProfiler (kinases); Cerep (receptors and ion channels)

## Cn1cc(-c2ccc(-c3cncc(Cl)c3N3CCC4(CCNC4=O)CC3)cc2)cn1 [Compound 74, 8-(3-Chloro-5-(4-(1-methyl-1H-pyrazol-4-yl)phenyl)pyridin-4-yl)-2,8-diazaspiro[4.5]decan-1-one]
β1 (h)
  inhibition at 10 µM: 5%
D2S (h)
  inhibition at 10 µM: 5%
H1 (h)
  inhibition at 10 µM: 16%
MC4 (h)
  inhibition at 10 µM: 4%
NTS1 (NT1) (h)
  inhibition at 10 µM: -8%
μ (MOP) (h)
  % Inhibition of Control Specific Binding: 42%
5-HT1B
  inhibition at 10 µM: -7%
5-HT6 (h)
  inhibition at 10 µM: 3%
Sst (non-selective)
  % Inhibition of Control Specific Binding: 4%
BRK
  remaining activity at 1 µM: 11%
CAMKI
  remaining activity at 1 µM: -12%
CAMKIV
  remaining activity at 1 µM: 6%
CDK5/P25
  remaining activity at 1 µM: -21%
CDK7/CYCLINH/MAT1
  remaining activity at 1 µM: 4%
CK2
  remaining activity at 1 µM: -7%
CSK
  remaining activity at 1 µM: 0%
DMPK
  remaining activity at 1 µM: 9%
EPHA2
  remaining activity at 1 µM: -7%
HIPK2
  remaining activity at 1 µM: -12%
HIPK3
  remaining activity at 1 µM: -2%
KDR
  remaining activity at 1 µM: 10%
LKB1
  remaining activity at 1 µM: 5%
MARK1
  remaining activity at 1 µM: 2%
MEK1
  remaining activity at 1 µM: 10%
MINK
  remaining activity at 1 µM: -12%
MST2
  remaining activity at 1 µM: 4%
NEK6
  remaining activity at 1 µM: -10%
NEK7
  remaining activity at 1 µM: 2%
PAR-1BALPHA
  remaining activity at 1 µM: 4%
PKG1ALPHA
  remaining activity at 1 µM: 0%
PYK2
  remaining activity at 1 µM: 5%
CRAF
  remaining activity at 1 µM: 5%
SGK
  remaining activity at 1 µM: -4%
SRC
  remaining activity at 1 µM: -6%
WNK2
  remaining activity at 1 µM: 0%
CAMKIIBETA
  remaining activity at 1 µM: 8%
VRK2
  remaining activity at 1 µM: -2%
CLK2
  remaining activity at 1 µM: -19%
TXK
  remaining activity at 1 µM: -2%
PLK1
  remaining activity at 1 µM: -4%
TEC ACTIVATED
  remaining activity at 1 µM: 14%
IR, ACTIVATED
  remaining activity at 1 µM: -4%
PRKAA1
  remaining activity at 1 µM: 2%
